Data: patent publication US20060182805A1, “Dosage form and method for sustained release of substituted pyrazine compound” (Jazz Pharmaceuticals, priority 2005, published 2006)
Where two headings read alike, the source gives them in different places.

Key:
[1] = Pharmacokinetics of the drug after single oral dose (volume of distribution, half lives); format: in vivo; details: for half-life: human, plasma, oral
Method: In this case, the drug is eliminated rapidly from the plasma via distribution into other tissues as well as through metabolism and excretion into the urine. The rapid elimination makes it necessary to deliver the drug into the GI tract for extended periods of time, up to about 24 hours. It may also require that the drug be delivered in an ascending profile such as that shown in this FIG. 5. Such ascending profile may be accomplished by increasing the dose from an initial dose in two to five increments to achieve a desired maximum dose or by delivering a dosage form with an ascending profile for the initial two to five doses. Such doses may be delivered every 24 hours or every 12 hours.
A steady state plasma profile occurs after the administration of two to three doses. The achievement of steady state with the desirable Cmax/Cmin ratio after the administration of very few doses is advantageous in that therapeutic levels are achieved in a short time and maintained thereafter. Rapid attainment of steady state allows for faster increases or decreases in dose without unwanted side effects and the resultant titration to a therapeutically effective dose and, if necessary, withdrawal of therapy. The Cmax/Cmin ratio at steady state is less than 3, often less than 2, often less than 1.5 and between 1.0 and 2.

[2] = In vitro release rate (dissolution) from dosage forms, FIG. 3-5; format: physicochemical
Method: By “dissolution rate” or “release rate” is intended the amount of active agent released in vitro from a dosage form per unit time into a release medium, usually in units of milligrams per hour (mg/hr). In vitro release rates are performed on dosage forms placed in metal coil sample holders attached to a USP Type VII bath indexer in a constant temperature water bath at 37° C. In addition, other appropriate dissolution test apparatuses may be suitable, such as, USP apparatus I or II. Aliquots of the release rate solutions are injected into a chromatographic system to quantify the amounts of drug released during each testing interval. According to the invention, between 2 and 50% of the dose is released following two hours after exposure of the dosage form to the environment of use. These dissolution rates may be between 2 and 60% or 10 and 50% within the first 4 hours, between about 20 and 80% or 35 and 70% from 4 hours to about 8 hours following exposure to the environment of use between about 35 and 95% or 45 and 85% from 8 hours to about 12 hours following exposure to the environment of use and greater than 50 to 80% or greater than 90% following 12 hours after exposure to the environment of use and greater than 90% following 22 hours after exposure to the environment of use.

SMILES: Nc1cnc(-c2cc(Cl)cc(Cl)c2Cl)c(N)n1 [3-(2,3,5-trichloro-phenyl)-pyrazine-2,6-diamine]
- half-life ([1]; read-out: final half life of the drug): 10 to 13 h
- half-life ([1]; read-out: initial half life of the drug): < 5 h
- volume of distribution (Vd) ([1]; single oral dose): about 640 liters
- period of release, controlled and increasing dose ([2]; ascending release profile, FIG. 5): 24 h
- period of release of active agent ([2]; first-order release profile, FIG. 4): about 20 hours
- amount released ([2]; first-order release profile, after 11 hours, FIG. 4): 90%
- period of release of active agent ([2]; zero-order release profile, FIG. 3): about 20 hours
- amount released ([2]; zero-order release profile, after 16 hours, FIG. 3): 90%
